Ki data for seven compounds are collected here from BindingDB's records for doi:10.1124/jpet.102.47407 (University of Tennessee, 2003).

The target in the assay is T1, cAMP-specific 3',5'-cyclic phosphodiesterase 4B (Rattus norvegicus, UniProt P14646).
T1 sequence (P14646 whole entry): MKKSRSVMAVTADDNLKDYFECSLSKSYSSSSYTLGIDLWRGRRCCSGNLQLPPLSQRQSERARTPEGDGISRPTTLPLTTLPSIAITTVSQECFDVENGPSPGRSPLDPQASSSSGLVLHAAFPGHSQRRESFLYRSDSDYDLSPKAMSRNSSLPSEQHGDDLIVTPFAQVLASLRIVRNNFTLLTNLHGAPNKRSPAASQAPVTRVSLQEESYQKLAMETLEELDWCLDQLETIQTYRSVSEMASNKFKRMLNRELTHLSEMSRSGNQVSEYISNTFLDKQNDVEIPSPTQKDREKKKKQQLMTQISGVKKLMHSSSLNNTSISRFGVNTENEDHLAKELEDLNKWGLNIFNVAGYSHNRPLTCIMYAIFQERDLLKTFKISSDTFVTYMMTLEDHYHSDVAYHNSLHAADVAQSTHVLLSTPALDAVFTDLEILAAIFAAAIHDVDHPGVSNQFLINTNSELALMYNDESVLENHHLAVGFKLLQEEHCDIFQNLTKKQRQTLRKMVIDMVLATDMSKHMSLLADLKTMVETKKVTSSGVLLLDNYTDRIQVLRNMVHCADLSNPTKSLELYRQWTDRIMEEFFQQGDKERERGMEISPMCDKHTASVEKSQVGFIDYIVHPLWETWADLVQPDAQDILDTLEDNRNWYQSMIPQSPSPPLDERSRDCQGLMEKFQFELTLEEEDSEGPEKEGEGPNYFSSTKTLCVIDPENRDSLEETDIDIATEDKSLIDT

“And” between values parts separate entries of the source, which are not always exact repeats. Equal values may be shown once.

Broadly, the Ki is the dissociation constant of the complex between target and ligand, obtained from inhibition or displacement. A high value points to a looser hold on the target.

As for `COc1ccc(Cc2nccc3cc(OC)c(OC)cc23)cc1OC`, the Ki was > 10 µM and 8.82 µM.
Take `CC(C)Cn1c(=O)n(C)c(=O)c2[nH]cnc21` [1-methyl-3-(2-methylpropyl)-2,3,6,7-tetrahydro-1H-purine-2,6-dione]: the Ki was 8.4 µM and 3.09 µM.
Turning to `COc1cc2c(cc1OC)-c1c/c(=N\c3c(C)cc(C)cc3C)n(C)c(=O)n1CC2` [CAS_5537], the Ki was > 10 µM and 3.15 µM.
In the case of `COc1ccc(C(Cc2ccncc2)c2ccccc2)cc1OC1CCCC1` (configuration not stated) [CDP 840], the Ki is 0.9 µM and 1.25 µM.
`O=C(Nc1c(Cl)cncc1Cl)c1ccc(OC(F)F)c(OCC2CC2)c1` [DAXAS]: the Ki was 0.003 µM and 0.0024 µM.
`Cc1[nH]c(=O)c(C#N)cc1-c1ccncc1` [Milrinone] showed a Ki of over 10 µM.
Consider `CCOC(=O)C1=CC2(CC)CCCN3CCc4c(n1c1ccccc41)C32` (configuration not stated) [NSC_443955], for which the Ki is 1 µM.
